Source: the supplement of paper PMC13380429

How the values were obtained:
Conditions in all cases: 72 h
Caco-2 [1] = assay: drug sensitivity score (DSS) for viability; higher = more toxic; extreme values may be limits of the assay
Vero E6 [2] = assay: as above
Calu-3 [3] = assay: as above
U2OS [4] = assay: as above
Caco-2 [5] = assay: cell viability relative to DMSO; higher = less toxic
Vero E6 [6] = assay: as above
Calu-3 [7] = assay: as above
U2OS [8] = assay: as above
Caco-2 [9] = assay: relative viability EC50 (midpoint between 100% and the lowest measured viability); higher = less toxic
Vero E6 [10] = assay: as above
Calu-3 [11] = assay: as above
U2OS [12] = assay: as above
HepG2 [13] = assay: drug sensitivity score (DSS) for viability; higher = more toxic; extreme values may be limits of the assay
HepG2 [14] = assay: cell viability relative to DMSO; higher = less toxic

Structure (SMILES)	drug sensitivity score (Caco-2 [1])	drug sensitivity score (Vero E6 [2])	drug sensitivity score (Calu-3 [3])	drug sensitivity score (U2OS [4])	cell viability (Caco-2 [5]; 1 nM) [%]	cell viability (Caco-2 [5]; 10 nM) [%]	cell viability (Caco-2 [5]; 100 nM) [%]	cell viability (Caco-2 [5]; 1000 nM) [%]	cell viability (Caco-2 [5]; 10000 nM) [%]	cell viability (Vero E6 [6]; 1 nM) [%]	cell viability (Vero E6 [6]; 10 nM) [%]	cell viability (Vero E6 [6]; 100 nM) [%]	cell viability (Vero E6 [6]; 1000 nM) [%]	cell viability (Vero E6 [6]; 10000 nM) [%]	cell viability (Calu-3 [7]; 1 nM) [%]	cell viability (Calu-3 [7]; 10 nM) [%]	cell viability (Calu-3 [7]; 100 nM) [%]	cell viability (Calu-3 [7]; 1000 nM) [%]	cell viability (Calu-3 [7]; 10000 nM) [%]	cell viability (U2OS [8]; 1 nM) [%]	cell viability (U2OS [8]; 10 nM) [%]	cell viability (U2OS [8]; 100 nM) [%]	cell viability (U2OS [8]; 1000 nM) [%]	cell viability (U2OS [8]; 10000 nM) [%]	relative viability EC50 (Caco-2 [9]) [µM]	relative viability EC50 (Vero E6 [10]) [µM]	relative viability EC50 (Calu-3 [11]) [µM]	relative viability EC50 (U2OS [12]) [µM]	drug sensitivity score (HepG2 [13])	cell viability (HepG2 [14]; 1 nM) [%]	cell viability (HepG2 [14]; 10 nM) [%]	cell viability (HepG2 [14]; 100 nM) [%]	cell viability (HepG2 [14]; 1000 nM) [%]	cell viability (HepG2 [14]; 10000 nM) [%]
CN1CCN(c2c(F)cc3c(=O)c(C(=O)O)cn(CCF)c3c2F)CC1 [fleroxacin]	0	0	0	0	102	97.2	100	96.8	107	102	105	97.6	101	98.1	88	106	102	108	107	96.5	93.6	104	97.1	102	> 10	> 10	> 10	> 10	–	–	–	–	–	–
CC(C)(C)c1ccc(-c2nc3c(N4CCN(Cc5ccc6nccnc6c5)CC4)cccc3[nH]2)cc1	2	2.4	0	2.4	109	91.7	90.3	100	59.7	102	105	103	95.6	64.5	104	104	111	106	92.1	92.8	101	93.4	99.2	54.8	–	–	> 10	–	1.9	98.3	96.5	94.4	97.7	66.9
O=C1NC(=O)/C(=C/c2ccc3nccc(-c4ccncc4)c3c2)S1	4.2	3.9	5.6	4.8	92.9	96.2	89.3	95.5	36	93.6	99.1	89.9	90.5	53.5	103	101	97.8	89.1	31.4	96.1	95.5	100	91.7	37.9	2.6	–	1.94	2.09	3.6	95.1	105	94.9	93	53.8
CC(C)(C)NCC(O)c1cc(Cl)c(N)c(C(F)(F)F)c1 (stereo unspecified) [mabuterol]	0.1	0	0	0	87.6	110	99.1	112	85.7	89.1	92	92.4	91.6	104	102	97	99.6	92.8	98.2	97.2	93.6	98.8	97.7	93.3	> 10	> 10	> 10	> 10	–	–	–	–	–	–
Cc1ccc(Cl)c(Nc2ccccc2C(=O)O)c1Cl [meclofenamic-acid]	0	0	0	0	97.6	103	95.8	102	91.2	105	93.7	102	101	96.5	98.2	101	88.1	109	91.8	99.3	103	97.1	105	96.2	> 10	> 10	> 10	> 10	–	–	–	–	–	–
COC(=O)C1=C(C)NC(C)=C(C(=O)O[C@H]2CCN(Cc3ccccc3)C2)[C@H]1c1cccc([N+](=O)[O-])c1 [barnidipine]	0.8	0	0.9	0.1	108	92.8	102	105	73.1	87.7	88.6	105	106	87.7	100	99.4	99.8	95.9	82.4	98.6	103	97.5	98.2	88.8	–	> 10	> 10	> 10	1.4	105	105	85.1	95.6	73.8
O=C(c1ccccc1)C(O)c1ccccc1 (stereo unspecified) [benzoin]	–	0	0	0	–	–	–	–	–	–	–	–	–	–	–	–	–	–	–	–	–	–	–	–	–	–	–	–	0.3	–	–	–	–	–
CS(=O)(=O)Nc1c(O)ccc2c1CCC[C@H]2C1=NCCN1	0	–	–	–	109	104	101	101	96.7	–	–	–	–	–	–	–	–	–	–	–	–	–	–	–	> 10	–	–	–	–	–	–	–	–	–
C#C[C@]1(O)CC[C@H]2[C@@H]3CCC4=CC(=O)CC[C@@H]4[C@H]3CC[C@@]21CC [norgestrel]	–	0	0	0	–	–	–	–	–	–	–	–	–	–	–	–	–	–	–	–	–	–	–	–	–	–	–	–	0	–	–	–	–	–
C=CC(=O)N1CCC(Oc2cc3c(Nc4ccc(Cl)c(Cl)c4F)ncnc3cc2OC)CC1 [poziotinib]	6.4	21.1	34.8	6.5	88.4	86.5	80.9	85.2	60.1	86.4	60.5	58.3	45.6	8.8	67.5	31.5	30	27.4	18.5	95.1	94.4	91.1	88	19.3	–	0.0784	0.0016	2	2.8	105	97.3	101	93.9	63.3
CC1(C)NC(=O)N(c2ccc([N+](=O)[O-])c(C(F)(F)F)c2)C1=O [nilutamide]	0	0	0	0	102	107	117	107	90.5	106	97.1	104	94.8	96.8	106	100	94.7	104	92.7	96	104	98.2	94.8	103	> 10	> 10	> 10	> 10	–	–	–	–	–	–
Nc1nnc(-c2cccc(Cl)c2Cl)c(N)n1 [lamotrigine]	–	–	0	0	–	–	–	–	–	–	–	–	–	–	–	–	–	–	–	–	–	–	–	–	–	–	–	–	–	–	–	–	–	–
CCC1(C)CC(=O)NC1=O (stereo unspecified) [ethosuximide]	0	0	0	0	87	77.2	88.5	84.8	84.6	99.2	106	101	103	96.6	110	93.6	89.8	107	94	102	93.4	102	99.6	100	> 10	> 10	> 10	> 10	–	–	–	–	–	–
CC(OC(=O)OC1CCCCC1)OC(=O)C1=C(CSc2nnnn2CCN(C)C)CS[C@@H]2[C@H](NC(=O)Cc3csc(N)n3)C(=O)N12 (stereo partly specified) [cefotiam-cilexetil]	0	–	0	0	82.3	93.3	96.8	113	117	–	–	–	–	–	96.4	90	99.1	96.9	109	96.5	102	98.4	99.5	94.8	> 10	–	> 10	> 10	–	–	–	–	–	–
NS(=O)(=O)c1cc2c(cc1Cl)NC(C(Cl)Cl)NS2(=O)=O (stereo unspecified) [trichlormethiazide]	–	0	0	0	–	–	–	–	–	–	–	–	–	–	–	–	–	–	–	–	–	–	–	–	–	–	–	–	1.4	–	–	–	–	–
O=C(Nc1cccc(Nc2ncc(Br)c(NCCc3cnc[nH]3)n2)c1)N1CCCC1 [BX-912]	0	0	0	2.5	103	93.4	102	94.6	101	97.7	93.5	94.4	95.8	91.5	108	95.4	104	102	91.2	102	93.2	97.5	98.3	55.9	> 10	> 10	> 10	–	4.7	103	91.8	103	82.3	55.8
CCCCNNC(=O)c1ccc(Br)cc1 [UF-010]	0.3	1.2	2.4	1.3	99.5	91.9	92.8	101	84.3	104	98.9	101	102	69.6	101	98.2	96.8	95.6	64.2	100	104	100	99.8	70.2	> 10	–	–	–	3.6	106	94	105	88	61.5
CCNCCCNCCCCNCCCNCC [1,12-Besm]	3.2	1.7	0.1	1.3	103	86.3	96.5	91.7	61.8	101	104	99.4	97.5	70.5	95.6	110	110	102	86.7	102	96.1	96.6	89.5	79.1	–	–	> 10	> 10	4.7	104	104	106	86.7	50.5
Cc1ccc(NC(=O)CCCCCC(=O)Nc2ccccc2N)cc1 [TC-H-106]	0.9	0.6	3.4	1.1	103	97	97.6	96.2	81.9	105	102	98.2	102	77.6	98.5	99.7	92.9	87.4	59.4	101	96.4	98.4	95.7	80.3	> 10	> 10	–	> 10	3.3	99.7	109	98.9	93.4	57.3
